The term ED50 denotes the dose at which the effect has come halfway, by size or by number of responders.

From patent publication US4436733A, “4"- And 3-ester derivatives of DMT and DMOT” (Eli Lilly and Company, priority 1982, dated 1984) come the findings set out here.

For assay [1], the system named is Streptococcus pneumoniae Park I. Kind of assay: standard agar-dilution assay, MIC. The class given is cell-based. Here is the method: (§1) The MIC's in Table III were determined by standard agar-dilutionassays. The MIC's in Table IV were obtained using a conventional broth-dilution microtiter test.
The test system of assay [2] is Staphylococcus epidermidis EPI2. Nature of the assay: standard agar-dilution assay, MIC. The class given is cell-based. Here is the method:
as §1

Assay [3] has as its system Streptococcus Group D X66. Kind of assay: standard agar-dilution assay, MIC. The class given is cell-based. On the procedure: as §1
Assay [4] has as its system Streptococcus Group 9960. Kind of assay: standard agar-dilution assay, MIC. The class given is cell-based. On the procedure: as §1
Assay [5] has as its system Staphylococcus aureus X1.1. Nature of the assay: standard agar-dilution assay, MIC. The class given is cell-based. On the procedure: as §1
For assay [6], the system named is Staphylococcus aureus S13E. Kind of assay: standard agar-dilution assay, MIC. The class given is cell-based. On the procedure:
as §1

For assay [7], the system named is Streptococcus pyogenes C203. Kind of assay: standard agar-dilution assay, MIC. The class given is cell-based. On the procedure:
as §1

Assay [8] concerns Staphylococcus epidermidis EPI1. Kind of assay: standard agar-dilution assay, MIC. The class given is cell-based. Here is the method: as §1
Assay [9] has as its system Staphylococcus aureus X400. Nature of the assay: standard agar-dilution assay, MIC. The conditions noted are these: Staphylococcus aureus X400, methicillin resistant strain. The class given is cell-based. On the procedure: as §1
^c Methicillinresistant-strain

Assay [10] deals with Pasteurella multocida 17E. Kind of assay: conventional broth-dilution microtiter test, MIC. The conditions noted are these: bovine isolate. The class given is cell-based. Here is the method:
as §1

Assay [11] has as its system Mycoplasma hyorhinis. Kind of assay: conventional broth-dilution microtiter test, MIC. The class given is cell-based. Here is the method:
as §1

Assay [12] has as its system Streptococcus sp. 80. Kind of assay: conventional broth-dilution microtiter test, MIC. The class given is cell-based. Here is the method:
as §1

In assay [13] the test system is Mycoplasma gallisepticum. Nature of the assay: conventional broth-dilution microtiter test, MIC. The class given is cell-based. Here is the method:
as §1

Assay [14] deals with Pasteurella multocida 60A. Nature of the assay: conventional broth-dilution microtiter test, MIC. The conditions noted are these: avian isolate. The class given is cell-based. Here is the method:
as §1

For assay [15], the system named is Staphylococcus aureus. Nature of the assay: conventional broth-dilution microtiter test, MIC. The class given is cell-based. Here is the method: as §1
In assay [16] the test system is Mycoplasma synoviae. Kind of assay: conventional broth-dilution microtiter test, MIC. The class given is cell-based. On the procedure: as §1
In assay [17] the test system is Staphylococcus aureus V41. Kind of assay: standard agar-dilution assay, MIC. The class given is cell-based. The conditions noted are these: Staphylococcus aureus V41, penicillin resistant strain. On the procedure:
as §1
^b Penicillinresistant strain

Assay [18] has as its system Streptococcus pyogenes C203. Nature of the assay: experimental bacterial infection in mice, ED50. The class given is in vivo. To be noted: doses given 1 and 5 hours postinfection, read-out: ED50 (effective dose to protect 50% of the test animals). Here is the method: The ester derivatives of this invention have shown in vivo antimicrobial activity against experimental bacterial infections caused by gram-positivebacteria. When two doses of test compound were administered to mice with experimental infections, the activity observed was measured as an ED50 value [effective dose in mg/kg to protect 50% of the test animals: see Warren Wick, et al., J. Bacteriol. 81, 233-235 (1961)].
^a mg/kg × 2; doses given 1 and 5 hours postinfection

The subject of assay [19] is Haemophilus influenzae Holt. Kind of assay: standard agar-dilution assay, MIC. The class given is cell-based. To be noted: ampicillin sensitive strain. Here is the method:
as §1
^d Ampicillinsensitive strain

In assay [20] the test system is Haemophilus influenzae R252. Kind of assay: standard agar-dilution assay, MIC. The class given is cell-based. The conditions noted are these: Haemophilus influenzae R252, ampicillin resistant strain. On the procedure:
as §1
^e Ampicillinresistant strain

Molecules are shown by their SMILES. Like-named read-outs stand apart in the source and are kept apart here.

Regarding `CCC(=O)OCC1C=C(C)C=CC(=O)C(C)CC(CC=O)C(OC2OC(C)C(OC3CC(C)(O)C(OC(=O)CC)C(C)O3)C(N(C)C)C2O)C(C)C(O)CC(=O)OC1CC` (stereo not shown) [Compound 4, 23,4"-Di-O-Propionyl-DMT], the “MIC (minimal inhibitory concentration)” value in [1] worked out at 0.06; in assay [2] it was 1; in assay [3] it was 1; in [4], 0.5; in assay [5], 0.5; in assay [6] it was 0.5. Further, the “MIC (minimal inhibitory concentration)” value in assay [7] is given as 0.25; in [8], 0.5; in assay [9], 1; in assay [10], 12.5; in assay [11] it was 0.78; in [12], 1.56. In addition, the “MIC (minimal inhibitory concentration)” value stood at 0.195 in assay [13]; 25 in [14]; 0.78 in [15]; 0.39 in assay [16]; 1 in assay [17]. In addition, the ED50 in [18] (C203, mice, oral) is above 150 mg/kg; in assay [18] (C203, sc, mice, subcutaneous) it was 12 mg/kg.
As for `CCC(=O)OCC1C=C(C)C=CC(=O)C(C)CC(CC=O)C(OC2OC(C)C(OC3CC(C)(O)C(OC(=O)CC)C(C)O3)C(N(C)C)C2O)C(C)C(OC(=O)CC)CC(=O)OC1CC` (stereo not shown) [Compound 10, 3,23,4"-Tri-O-Propionyl-DMT], the “MIC (minimal inhibitory concentration)” value in [1] came to 0.125; in assay [2] it was 2; in assay [3], 1; in [4] it was 1; in [5], 0.5; in assay [6], 0.5. The “MIC (minimal inhibitory concentration)” value in assay [7] stood at 0.25; in assay [8], 1; in assay [9], 1; in assay [10] it was 25; in assay [11], 0.78; in assay [12], 1.56. Moreover, the “MIC (minimal inhibitory concentration)” value in assay [13] is on record as at most 0.05; in [14], 50; in assay [15] it was 1.56; in assay [16] it was 0.39; in [17], 1. Further, the ED50 in [18] (C203, mice, oral) is above 150 mg/kg; in assay [18] (C203, sc, mice, subcutaneous), 13 mg/kg.
Consider `CCC1OC(=O)CC(O)C(C)C(OC2OC(C)C(OC3CC(C)(O)C(OC(=O)C(Cl)(Cl)Cl)C(C)O3)C(N(C)C)C2OC(C)=O)C(CC=O)CC(C)C(=O)C=CC(C)=CC1COC(=O)C(Cl)(Cl)Cl` (stereo not shown) [Compound 11, 2'-O-acetyl-23,4"-di-O-trichloroacetyl-DMT], for which the “MIC (minimal inhibitory concentration)” value in assay [1] came to 0.25; in assay [2] it was 4; in [3] it was 4; in assay [4], 4; in assay [5], 4; in assay [6], 4. Moreover, the “MIC (minimal inhibitory concentration)” value came out at 2 in [7]; 2 in assay [8]; 32 in assay [19]; 8 in assay [9]; 16 in assay [20]; 8 in assay [17].
Turning to `CCC1OC(=O)CC(OC(=O)C(Cl)(Cl)Cl)C(C)C(OC2OC(C)C(OC3CC(C)(O)C(O)C(C)O3)C(N(C)C)C2OC(C)=O)C(CC=O)CC(C)C(=O)C=CC(C)=CC1COC(=O)C(Cl)(Cl)Cl` (stereo not shown) [Compound 12, 2'-O-acetyl-3,23-di-O-trichloroacetyl-DMT], the “MIC (minimal inhibitory concentration)” value in assay [1] is listed as 0.125; in assay [2] it was 2; in assay [3] it was 2; in assay [4], 2; in assay [5], 1; in [6], 1. Further, the “MIC (minimal inhibitory concentration)” value in assay [7] stood at 0.5; in [8] it was 1; in assay [19] it was 32; in assay [9] it was 2; in assay [20] it was 16; in assay [17] it was 2.
`CCC1OC(=O)CC(OC(=O)C(Cl)(Cl)Cl)C(C)C(OC2OC(C)C(OC3CC(C)(O)C(OC(=O)C(Cl)(Cl)Cl)C(C)O3)C(N(C)C)C2OC(C)=O)C(CC=O)CC(C)C(=O)C=CC(C)=CC1COC(=O)C(Cl)(Cl)Cl` (stereo not shown) [Compound 13, 2'-O-acetyl-3,23,4"-tri-O-trichloroacetyl-DMT]: the “MIC (minimal inhibitory concentration)” value in [1] was found to be 2; in [2], 16; in [3], 16; in assay [4], 16; in assay [5], 8; in assay [6], 8. For the same compound, the “MIC (minimal inhibitory concentration)” value in [7] was 8; in assay [8] it was 8; in [19] it was 128; in assay [9], 16; in assay [20] it was 128; in assay [17], 16.
For `CCC(=O)OC1C(C)OC(OC2C(C)OC(OC3C(CC=O)CC(C)C(=O)C=CC(C)=CC(C)C(CC)OC(=O)CC(O)C3C)C(OC(C)=O)C2N(C)C)CC1(C)O` (stereo not shown) [Compound 22, 2'-O-Acetyl-4"-O-Propionyl-DMOT], the “MIC (minimal inhibitory concentration)” value in assay [1] is listed as 0.125; in [2], 1; in assay [3], 0.5; in [4], 0.5; in assay [5], 0.25; in assay [6] it was 0.5. The “MIC (minimal inhibitory concentration)” value in assay [7] was found to be 0.25; in [8] it was 0.5; in assay [9] it was 0.5; in [10] it was 25; in assay [11] it was 1.56; in [12] it was 1.56. Also, the “MIC (minimal inhibitory concentration)” value in [13] was determined as 0.195; in assay [14] it was 25; in [15], 3.12; in assay [16] it was 0.78; in assay [17], 0.5. In addition, the ED50 is 91 mg/kg in assay [18] (C203, mice, oral) and above 30 mg/kg in assay [18] (C203, sc, mice, subcutaneous).
For `CCC(=O)OC1CC(=O)OC(CC)C(C)C=C(C)C=CC(=O)C(C)CC(CC=O)C(OC2OC(C)C(OC3CC(C)(O)C(OC(=O)CC)C(C)O3)C(N(C)C)C2OC(C)=O)C1C` (stereo not shown) [Compound 23, 2'-O-Acetyl-3,4"-Di-O-Propionyl-DMOT], the “MIC (minimal inhibitory concentration)” value in assay [1] is 0.06; in assay [2], 1; in assay [3] it was 1; in [4], 1; in assay [5], 0.5; in assay [6] it was 0.5. Moreover, the “MIC (minimal inhibitory concentration)” value in assay [7] was 0.5; in [8], 0.5; in assay [9], 1; in [10], 50; in [11], 1.56; in assay [12], 1.56. Also, the “MIC (minimal inhibitory concentration)” value was 0.39 in [13]; above 50 in assay [14]; 1.56 in assay [15]; 3.12 in assay [16]; 1 in assay [17]. For the same compound, the median effective dose (ED50) was above 100 mg/kg in [18] (C203, mice, oral) and above 30 mg/kg in assay [18] (C203, sc, mice, subcutaneous).
